Assay results as given in the NIST ThermoML archive (doi:10.1021/je700236c).
“And” between values parts separate entries of the source, which are not always exact repeats. Equal values may be shown once. ± gives the expanded uncertainty stated by the source.

Settings: Gas, Buoyancy - hydrostatic balance with magnetic suspension - two sinkers

In the case of `FC(F)C(F)(F)F` [pentafluoroethane], the mass density (283.15 K, 207.2 kPa) is reported as 10.978 ± 0.012 kg/m3 and 10.98 ± 0.012 kg/m3, the mass density (283.15 K, 442.7 kPa) is reported as 24.675 ± 0.022 kg/m3 and 24.667 ± 0.022 kg/m3 and the mass density (283.15 K, 617.4 kPa) is reported as 35.904 ± 0.032 kg/m3 and 35.92 ± 0.032 kg/m3. The mass density (283.15 K, 710.7 kPa) was 42.388 ± 0.04 kg/m3, the mass density (283.15 K, 710.8 kPa) was 42.398 ± 0.04 kg/m3 and the mass density (283.15 K, 758.3 kPa) was 45.855 ± 0.044 kg/m3 and 45.853 ± 0.044 kg/m3. The mass density (283.15 K, 811.7 kPa) was 49.881 ± 0.047 kg/m3 and 49.877 ± 0.047 kg/m3, the mass density (283.15 K, 828 kPa) was 51.141 ± 0.049 kg/m3 and 51.137 ± 0.049 kg/m3 and the mass density (283.15 K, 857 kPa) was 53.429 ± 0.052 kg/m3 and 53.417 ± 0.052 kg/m3. For the same molecule, the mass density (283.15 K, 872.2 kPa) was 54.64 ± 0.054 kg/m3, the mass density (283.15 K, 872.3 kPa) was 54.652 ± 0.054 kg/m3 and the mass density (283.15 K, 880 kPa) was 55.27 ± 0.055 kg/m3 and 55.283 ± 0.055 kg/m3. The mass density (283.15 K, 889.1 kPa) was 56.021 ± 0.056 kg/m3, the mass density (283.15 K, 889.2 kPa) was 56.023 ± 0.056 kg/m3 and the mass density (283.15 K, 901.7 kPa) was 57.048 ± 0.056 kg/m3 and 57.055 ± 0.057 kg/m3. For the same molecule, the mass density (293.15 K, 205.9 kPa) was 10.502 ± 0.012 kg/m3, the mass density (293.15 K, 206 kPa) was 10.492 ± 0.012 kg/m3 and the mass density (293.15 K, 413.1 kPa) was 21.853 ± 0.019 kg/m3. For the same molecule, the mass density (293.15 K, 413.2 kPa) was 21.867 ± 0.019 kg/m3, the mass density (293.15 K, 605 kPa) was 33.264 ± 0.03 kg/m3 and 33.278 ± 0.03 kg/m3 and the mass density (293.15 K, 799.7 kPa) was 45.976 ± 0.043 kg/m3. The mass density (293.15 K, 799.8 kPa) was 45.993 ± 0.043 kg/m3, the mass density (293.15 K, 901.5 kPa) was 53.187 ± 0.05 kg/m3 and 53.196 ± 0.05 kg/m3 and the mass density (293.15 K, 1000.4 kPa) was 60.669 ± 0.06 kg/m3. For the same molecule, the mass density (293.15 K, 1000.5 kPa) was 60.666 ± 0.06 kg/m3, the mass density (293.15 K, 1051.5 kPa) was 64.739 ± 0.065 kg/m3 and 64.718 ± 0.065 kg/m3 and the mass density (293.15 K, 1101.2 kPa) was 68.839 ± 0.072 kg/m3. For the same molecule, the mass density (293.15 K, 1101.3 kPa) was 68.86 ± 0.072 kg/m3, the mass density (293.15 K, 1133.2 kPa) was 71.588 ± 0.075 kg/m3 and 71.578 ± 0.075 kg/m3 and the mass density (293.15 K, 1149.6 kPa) was 73.019 ± 0.077 kg/m3. It also gave a mass density (293.15 K, 1149.7 kPa) of 73.016 ± 0.077 kg/m3, a mass density (293.15 K, 1170.5 kPa) of 74.869 ± 0.08 kg/m3 and a mass density (293.15 K, 1170.6 kPa) of 74.882 ± 0.08 kg/m3. The mass density (293.15 K, 1181.8 kPa) was 75.887 ± 0.081 kg/m3, the mass density (293.15 K, 1182 kPa) was 75.908 ± 0.081 kg/m3 and the mass density (293.15 K, 1192.1 kPa) was 76.823 ± 0.082 kg/m3. The mass density (293.15 K, 1192.2 kPa) was 76.841 ± 0.082 kg/m3, the mass density (293.15 K, 1200.9 kPa) was 77.624 ± 0.082 kg/m3 and the mass density (293.15 K, 1201 kPa) was 77.644 ± 0.083 kg/m3. The mass density (303.15 K, 225.1 kPa) was 11.079 ± 0.012 kg/m3 and 11.067 ± 0.012 kg/m3, the mass density (303.15 K, 411.9 kPa) was 20.874 ± 0.018 kg/m3 and 20.883 ± 0.018 kg/m3 and the mass density (303.15 K, 602.3 kPa) was 31.549 ± 0.028 kg/m3 and 31.562 ± 0.028 kg/m3. The mass density (303.15 K, 800.1 kPa) was 43.526 ± 0.04 kg/m3 and 43.535 ± 0.04 kg/m3, the mass density (303.15 K, 999.2 kPa) was 56.733 ± 0.055 kg/m3 and the mass density (303.15 K, 999.3 kPa) was 56.74 ± 0.055 kg/m3. For the same molecule, the mass density (303.15 K, 1202.4 kPa) was 71.762 ± 0.073 kg/m3 and 71.771 ± 0.073 kg/m3, the mass density (303.15 K, 1299.2 kPa) was 79.657 ± 0.085 kg/m3 and the mass density (303.15 K, 1299.4 kPa) was 79.674 ± 0.085 kg/m3. For the same molecule, the mass density (303.15 K, 1406.6 kPa) was 89.099 ± 0.097 kg/m3, the mass density (303.15 K, 1406.7 kPa) was 89.124 ± 0.097 kg/m3 and the mass density (303.15 K, 1450.2 kPa) was 93.212 ± 0.1 kg/m3 and 93.199 ± 0.1 kg/m3. The mass density (303.15 K, 1481.2 kPa) was 96.221 ± 0.11 kg/m3, the mass density (303.15 K, 1481.3 kPa) was 96.231 ± 0.11 kg/m3 and the mass density (303.15 K, 1505.2 kPa) was 98.609 ± 0.12 kg/m3 and 98.623 ± 0.12 kg/m3. The mass density (303.15 K, 1520.5 kPa) was 100.175 ± 0.12 kg/m3, the mass density (303.15 K, 1520.6 kPa) was 100.195 ± 0.12 kg/m3 and the mass density (303.15 K, 1537.3 kPa) was 101.933 ± 0.12 kg/m3. The mass density (303.15 K, 1537.4 kPa) was 101.917 ± 0.12 kg/m3, the mass density (303.15 K, 1565.1 kPa) was 104.879 ± 0.13 kg/m3 and the mass density (303.15 K, 1565.8 kPa) was 104.956 ± 0.13 kg/m3. The mass density (313.15 K, 203.4 kPa) was 9.623 ± 0.012 kg/m3 and 9.618 ± 0.012 kg/m3, the mass density (313.15 K, 404.5 kPa) was 19.688 ± 0.017 kg/m3 and the mass density (313.15 K, 404.6 kPa) was 19.685 ± 0.017 kg/m3. For the same molecule, the mass density (313.15 K, 602.7 kPa) was 30.217 ± 0.026 kg/m3 and 30.212 ± 0.026 kg/m3, the mass density (313.15 K, 801.5 kPa) was 41.504 ± 0.038 kg/m3 and 41.496 ± 0.038 kg/m3 and the mass density (313.15 K, 1002 kPa) was 53.773 ± 0.051 kg/m3 and 53.76 ± 0.051 kg/m3. The mass density (313.15 K, 1199.3 kPa) was 66.926 ± 0.066 kg/m3 and 66.915 ± 0.066 kg/m3, the mass density (313.15 K, 1398.2 kPa) was 81.578 ± 0.086 kg/m3 and the mass density (313.15 K, 1398.3 kPa) was 81.585 ± 0.086 kg/m3. For the same molecule, the mass density (313.15 K, 1604.4 kPa) was 98.7 ± 0.11 kg/m3, the mass density (313.15 K, 1604.5 kPa) was 98.71 ± 0.11 kg/m3 and the mass density (313.15 K, 1705.9 kPa) was 108.153 ± 0.13 kg/m3 and 108.152 ± 0.13 kg/m3. The mass density (313.15 K, 1814.1 kPa) was 119.179 ± 0.15 kg/m3 and 119.18 ± 0.15 kg/m3, the mass density (313.15 K, 1900.7 kPa) was 128.938 ± 0.17 kg/m3 and 128.932 ± 0.17 kg/m3 and the mass density (313.15 K, 1951.9 kPa) was 135.196 ± 0.19 kg/m3 and 135.193 ± 0.19 kg/m3. For the same molecule, the mass density (313.15 K, 1976.7 kPa) was 138.379 ± 0.19 kg/m3 and 138.387 ± 0.19 kg/m3, the mass density (313.15 K, 1990.3 kPa) was 140.201 ± 0.2 kg/m3 and 140.173 ± 0.2 kg/m3 and the mass density (313.15 K, 2001.8 kPa) was 141.759 ± 0.21 kg/m3. For the same molecule, the mass density (313.15 K, 2002 kPa) was 141.763 ± 0.2 kg/m3, the mass density (323.15 K, 196.2 kPa) was 8.951 ± 0.012 kg/m3 and 8.953 ± 0.012 kg/m3 and the mass density (323.15 K, 495.8 kPa) was 23.505 ± 0.02 kg/m3 and 23.498 ± 0.02 kg/m3. For the same molecule, the mass density (323.15 K, 798.1 kPa) was 39.455 ± 0.035 kg/m3 and 39.458 ± 0.035 kg/m3, the mass density (323.15 K, 999.5 kPa) was 50.95 ± 0.047 kg/m3 and the mass density (323.15 K, 999.6 kPa) was 50.954 ± 0.047 kg/m3. For the same molecule, the mass density (323.15 K, 1199 kPa) was 63.156 ± 0.061 kg/m3 and 63.162 ± 0.061 kg/m3, the mass density (323.15 K, 1399 kPa) was 76.417 ± 0.077 kg/m3 and 76.411 ± 0.077 kg/m3 and the mass density (323.15 K, 1599.7 kPa) was 90.933 ± 0.097 kg/m3 and 90.927 ± 0.097 kg/m3. For the same molecule, the mass density (323.15 K, 1798.9 kPa) was 106.993 ± 0.12 kg/m3, the mass density (323.15 K, 1799 kPa) was 106.996 ± 0.12 kg/m3 and the mass density (323.15 K, 2000.3 kPa) was 125.421 ± 0.16 kg/m3 and 125.435 ± 0.16 kg/m3. The mass density (323.15 K, 2100.4 kPa) was 135.708 ± 0.18 kg/m3 and 135.695 ± 0.18 kg/m3, the mass density (323.15 K, 2201.4 kPa) was 147.071 ± 0.21 kg/m3 and the mass density (323.15 K, 2201.5 kPa) was 147.082 ± 0.21 kg/m3. The mass density (323.15 K, 2301.3 kPa) was 159.592 ± 0.23 kg/m3 and 159.61 ± 0.23 kg/m3, the mass density (323.15 K, 2350 kPa) was 166.311 ± 0.27 kg/m3 and the mass density (323.15 K, 2350.1 kPa) was 166.298 ± 0.27 kg/m3. For the same molecule, the mass density (323.15 K, 2400.2 kPa) was 173.712 ± 0.29 kg/m3 and 173.74 ± 0.29 kg/m3, the mass density (323.15 K, 2430 kPa) was 178.427 ± 0.32 kg/m3 and the mass density (323.15 K, 2430.1 kPa) was 178.468 ± 0.32 kg/m3. The mass density (323.15 K, 2451.8 kPa) was 182.037 ± 0.33 kg/m3 and 182.009 ± 0.33 kg/m3 and the mass density (323.15 K, 2469.3 kPa) was 185.047 ± 0.35 kg/m3 and 185.021 ± 0.34 kg/m3.
